Data published in US20240343761A1, “APELINERGIC MACROCYCLES AND USES THEREOF” (priority 2021, published 2024).
Numbered stars: 1 amine (or outer) side, 2 acyl side, 3 side chain; on linkers, the order of the positions; unused ones are H or OH. Bridge positions count the residues as written; N and C are the ends. Square brackets hold non-standard residues; d marks the D form. Peptide text beside a SMILES is read from it. * marks the point of attachment. X5 = O=C([C@H](Cc1cc(C2CCCC2)c(OCc2ccccc2)c(C2CCCC2)c1)N[*:1])[*:2]; Benzoyl(4-Br) = O=C(c1ccc(Br)cc1)*; hArg = N=C(N)NCCCC[C@H](N)C(=O)O; pGlu = O=C1CC[C@@H](C(=O)O)N1; Nle = CCCC[C@H](N)C(=O)O; Bn = c1ccc(C*)cc1

Columns and labels:
hAPJ receptor [1] = target: T1, hAPJ receptor (Homo sapiens, UniProt P35414); experiment: BRET-based β-arrestin2 recruitment assay in HEK293 cells; format: cell-based; details: for Emax: HEK293, Table V, read-out: ß-arr2 Emax
T1 construct: expressed in transfected cells; host or cells: HEK293, transient transfection with PEI
T1 sequence (P35414 1-380): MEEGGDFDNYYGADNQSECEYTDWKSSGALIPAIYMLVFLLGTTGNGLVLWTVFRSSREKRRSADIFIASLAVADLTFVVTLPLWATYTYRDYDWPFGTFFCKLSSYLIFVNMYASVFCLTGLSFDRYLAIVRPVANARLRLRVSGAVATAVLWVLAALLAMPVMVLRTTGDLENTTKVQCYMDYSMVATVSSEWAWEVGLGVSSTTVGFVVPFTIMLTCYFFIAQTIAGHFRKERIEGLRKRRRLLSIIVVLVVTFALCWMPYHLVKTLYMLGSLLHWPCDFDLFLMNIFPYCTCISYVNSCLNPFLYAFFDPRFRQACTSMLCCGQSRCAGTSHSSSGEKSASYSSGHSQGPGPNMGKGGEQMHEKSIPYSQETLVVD
Description: (§1) HEK293 cells were cultivated in high glucose DMEM medium having 10% FBS, 100 U/mL penicillin/streptomycin, 2 mM glutamine, and 20 mM HEPES at 37° C. in T175 flasks under humidified chamber at 5% CO2. […] Cells were then washed with phosphate-buffered saline (PBS) and 90 μL Hanks' balanced salt solution was added in each well. Then, cells were stimulated with analogs at concentrations ranging from 10^−5 M to 10^−11 M for 5 min at 37° C. (Gαi1) or for 30 min at room temperature (β-arrestin2). After stimulation, 5 μM of coelanterazine 400A was added to each well and the plate was read using the BRET^2 filter set of a GeniosPro plate reader (Tecan, Austria). The BRET ratio was determined as GFP10em/RlucIIem. Data were plotted and EC50 values were determined using GraphPad Prism 8. Each data point represents the mean±SEM of at least three different experiments each done in triplicate.

hAPJ receptor [2] = target: T1, hAPJ receptor; experiment: BRET-based Gαi1 activation assay in HEK293 cells; format: cell-based; details: for Emax: HEK293, Table V, read-out: Gαi1 Emax
Description: as §1

CCCC[C@H](NC(=O)[C@@H]1CCCN1C(=O)CNC(=O)[C@H](CCCCN)NC(=O)[C@@H]1CCN(C)CC=CC[C@H](NC(=O)[C@H](CCCNC(=N)N)NC(=O)[C@@H]2CCC(=O)N2)C(=O)N[C@@H](CCCNC(=N)N)C(=O)N[C@@H](CC(C)C)C(=O)N[C@@H](CO)C(=O)N1)C(=O)N1CCC[C@H]1C(=O)N[C@@H](Cc1ccccc1)C(=O)O [Compound 19, Pyr-R-c[X-R-L-S-Almb]c-K-G-P-Nle-P-F] gave an Emax (hAPJ receptor [1]) of 90% and an Emax (hAPJ receptor [2]) of 102%.

CC(C)C[C@@H]1NC(=O)[C@@H]2CCCN2C(=O)[C@@H](NC(=O)[C@H](CO)NC(=O)[C@H](CCCNC(=N)N)NC(=O)[C@H](CCCNC(=N)N)NC(=O)[C@@H]2CCC(=O)N2)CCC(=O)NCCCC[C@@H](C(=O)N[C@@H](CCCNC(=N)N)C(=O)N[C@H](C(=O)N2CCC[C@H]2C(=O)N[C@@H](Cc2ccccc2)C(=O)N2CCC[C@H]2C(=O)O)C(C)C)NC(=O)[C@H](Cc2c[nH]cn2)NC1=O [Compound 77, Pyr-R-R-S-c[E-P-L-H-K]-R-V-P-F-P] was tested, and the EC50 (hAPJ receptor [1]) was 247 ± 62 nM.

CC(C)C[C@@H]1NC(=O)[C@H](CCCNC(=N)N)NC(=O)[C@@H](N)CC=CC[C@@H](C(=O)N[C@@H](CCCCN)C(=O)NCC(=O)N2CCC[C@H]2C(=O)N[C@H](Cc2ccc(O)cc2)C(=O)O)NC(=O)[C@H](CO)NC1=O [Compound 45, NH2-c[X-R-L-S-X]c-K-G-P-(D-Tyr)] gave an Emax (hAPJ receptor [1]) of 54% and an Emax (hAPJ receptor [2]) of 100%.

Work on CCCC[C@H](NC(=O)[C@@H]1CCC(=O)NCCCC[C@H](N)C(=O)N[C@@H](CCCNC(=N)N)C(=O)N[C@@H](CCCNC(=N)N)C(=O)N1)C(=O)N1CCC[C@H]1C(=O)N[C@@H](CC(C)C)C(=O)N[C@@H](Cc1c[nH]cn1)C(=O)N[C@@H](CO)C(=O)N[C@@H](CCCNC(=N)N)C(=O)N[C@H](C(=O)N1CCC[C@H]1C(=O)N[C@@H](Cc1ccccc1)C(=O)N1CCC[C@H]1C(=O)O)C(C)C [Compound 72, c[K-R-R-E]-Nle-P-L-H-S-R-V-P-F-P] (H-KRRE[Nle]PLHSRVPFP-OH; lactam 1-4) yielded an EC50 (hAPJ receptor [1]) of 47 ± 2 nM and an EC50 (hAPJ receptor [2]) of 1.7 ± 0.4 nM.

In the case of CCCC[C@H](NC(=O)[C@@H]1CCCN1C(=O)CNC(=O)[C@H](CCCCN)NC(=O)[C@@H]1CCN(S(=O)(=O)c2ccccc2[N+](=O)[O-])CC=CC[C@H](N)C(=O)N[C@@H](CCCNC(=N)N)C(=O)N[C@@H](CC(C)C)C(=O)N[C@@H](CO)C(=O)N1)C(=O)N1CCC[C@H]1C(=O)N[C@@H](Cc1ccccc1)C(=O)O [Compound 28, NH2-c[X-R-L-S-Alnb]c-K-G-P-Nle-P-F], the Emax (hAPJ receptor [1]) is reported as 82% and the Emax (hAPJ receptor [2]) is reported as 106%.

CC(C)C[C@@H]1NC(=O)[C@@H]2CCCN2C(=O)[C@@H](NC(=O)[C@H](CO)NC(=O)[C@H](CCCCNC(=N)N)NC(=O)[C@H](CCCNC(=N)N)NC(=O)[C@@H]2CCC(=O)N2)CCC(=O)NCCCC[C@@H](C(=O)N[C@@H](CCCNC(=N)N)C(=O)N[C@H](C(=O)N2CCC[C@H]2C(=O)N[C@@H](Cc2ccccc2)C(=O)N2CCC[C@H]2C(=O)O)C(C)C)NC(=O)[C@H](Cc2c[nH]cn2)NC1=O [Compound 91, Pyr-R-hR-S-[E-P-L-H-K]-R-V-P-F-P] ([pGlu]R[hArg]SEPLHKRVPFP-OH; lactam 5-9) showed an EC50 (hAPJ receptor [1]) of 173 ± 20 nM and an EC50 (hAPJ receptor [2]) of 4.3 ± 1.1 nM.

Work on CC(C)C[C@@H]1NC(=O)[C@@H]2CCCN2C(=O)[C@@H](NC(=O)[C@H](CO)NC(=O)[C@H](CCCNC(=N)N)NC(=O)[C@H](CCCCNC(=N)N)NC(=O)[C@@H]2CCC(=O)N2)CCC(=O)NCCCC[C@@H](C(=O)N[C@@H](CCCNC(=N)N)C(=O)N[C@H](C(=O)N2CCC[C@H]2C(=O)N[C@@H](Cc2ccccc2)C(=O)N2CCC[C@H]2C(=O)O)C(C)C)NC(=O)[C@H](Cc2c[nH]cn2)NC1=O [Compound 90, Pyr-hR-R-S-[E-P-L-H-K]-R-V-P-F-P] yielded an EC50 (hAPJ receptor [1]) of 394 ± 47 nM.

For CC(C)C[C@@H]1NC(=O)[C@@H]2CCCN2C(=O)[C@@H](NC(=O)[C@H](CO)NC(=O)[C@H](CCCNC(=N)N)NC(=O)[C@H](CCCNC(=N)N)NC(=O)c2ccc(Br)cc2)CCC(=O)NCCCC[C@@H](C(=O)N[C@@H](CCCNC(=N)N)C(=O)N[C@H](C(=O)N2CCC[C@H]2C(=O)N[C@@H](Cc2ccccc2)C(=O)N2CCC[C@H]2C(=O)O)C(C)C)NC(=O)[C@H](Cc2c[nH]cn2)NC1=O [Compound 89, 4BrBz-R-R-S-[E-P-L-H-K]-R-V-P-F-P] ({Benzoyl(4-Br)}-RRSEPLHKRVPFP-OH; lactam 4-8), the EC50 (hAPJ receptor [1]) was 50 ± 4 nM.

Work on CCCC[C@@H]1NC(=O)[C@@H](NC(=O)[C@H](CCCNC(=N)N)NC(=O)[C@H](CCCNC(=N)N)NC(=O)[C@@H]2CCC(=O)N2)CCC(=O)NCCCC[C@@H](C(=O)N[C@@H](Cc2c[nH]cn2)C(=O)N[C@@H](CO)C(=O)N[C@@H](CCCNC(=N)N)C(=O)N[C@H](C(=O)N2CCC[C@H]2C(=O)N[C@@H](Cc2ccccc2)C(=O)N2CCC[C@H]2C(=O)O)C(C)C)NC(=O)[C@@H]2CCCN2C1=O [Compound 75, Pyr-R-R-c[E-Nle-P-K]-H-S-R-V-P-F-P] ([pGlu]RRE[Nle]PKHSRVPFP-OH; lactam 4-7) yielded an EC50 (hAPJ receptor [1]) of 2020 ± 479 nM.

CCCC[C@H](NC(=O)[C@@H]1CCCN1C(=O)CNC(=O)[C@H](CCCCN)NC(=O)[C@@H]1CCNCC=CC[C@H](NC(=O)[C@H](CCCNC(=N)N)NC(=O)[C@@H]2CCC(=O)N2)C(=O)N[C@@H](CCCNC(=N)N)C(=O)N[C@@H](CC(C)C)C(=O)N[C@@H](CO)C(=O)N1)C(=O)N1CCC[C@H]1C(=O)N[C@@H](Cc1ccccc1)C(=O)O [Compound 18, Pyr-R-c[X-R-L-S-Alb]c-K-G-P-Nle-P-F] was tested, and the Emax (hAPJ receptor [1]) was 86% and the Emax (hAPJ receptor [2]) was 100%.

CC(C)C[C@@H]1NC(=O)[C@H](CCCNC(=N)N)NC(=O)[C@@H](N)CC=CC[C@@H](C(=O)N[C@@H](CCCCN)C(=O)NCC(=O)N2CCC[C@H]2C(=O)N[C@H](Cc2ccc(OCc3ccccc3)cc2)C(=O)O)NC(=O)[C@H](CO)NC1=O [Compound 44, NH2-c[X-R-L-S-X]c-K-G-P-(D-TyrOBn)] showed an Emax (hAPJ receptor [1]) of 78% and an Emax (hAPJ receptor [2]) of 104%.

CCCC[C@H](NC(=O)[C@@H]1CCCN1C(=O)[C@@H]1CCCCNC(=O)CC[C@H](NC(=O)[C@H](CC(C)C)NC(=O)[C@H](CCCNC(=N)N)NC(=O)[C@@H]2CCCN2C(=O)[C@H](CCCNC(=N)N)NC(=O)[C@H](CCC(N)=O)NC(=O)[C@H](CCCNC(=N)N)NC(=O)[C@H](CCCNC(=N)N)NC(=O)[C@H](Cc2ccccc2)NC(=O)[C@H](CCCCN)NC(C)=O)C(=O)N[C@@H](Cc2c[nH]cn2)C(=O)N[C@@H](CCCCN)C(=O)N1)C(=O)N1CCC[C@H]1C(=O)N[C@@H](Cc1ccc(OCc2ccccc2)cc1)C(=O)O [Compound 66, Ac-K-F-R-R-Q-R-P-R-L-[E-H-K-K]-P-Nle-P-TyrOBn] (Ac-KFRRQRPRLEHKKP[Nle]PY(Bn)-OH; lactam 10-13) gave an EC50 (hAPJ receptor [1]) of 334 nM.

Work on CCCC[C@H](NC(=O)[C@@H]1CCCN1C(=O)[C@@H]1CCCCNC(=O)CC[C@H](NC(=O)[C@H](CC(C)C)NC(=O)[C@H](CCCNC(=N)N)NC(=O)[C@@H]2CCCN2C(=O)[C@H](CCCNC(=N)N)NC(=O)[C@H](CCC(N)=O)NC(=O)[C@H](CCCNC(=N)N)NC(=O)[C@H](CCCNC(=N)N)NC(=O)[C@H](Cc2ccccc2)NC(=O)[C@H](CCCCN)NC(C)=O)C(=O)N[C@@H](Cc2c[nH]cn2)C(=O)N[C@@H](CCCCN)C(=O)N1)C(=O)N1CCC[C@H]1C(=O)N[C@@H](Cc1cc(C2CCCC2)c(OCc2ccccc2)c(C2CCCC2)c1)C(=O)O [Compound 65, Ac-K-F-R-R-Q-R-P-R-L-[E-H-K-K]-P-Nle-P-dcypTyrOBn] (Ac-KFRRQRPRLEHKKP[Nle]P[X5]-OH; lactam 10-13) yielded an EC50 (hAPJ receptor [1]) greater than 10000 nM.
